Patent publication US9895390B2, “Methods and assays for combination treatment of cancer” (CHILDREN'S MEDICAL CENTER CORPORATION, priority 2012, dated 2018)
Entries after “also recorded” stand apart in the source; their conditions may differ.

Assays:
[1] = system: p57, p21, p27, Brg1 and EGFR expression; experiment: Quantitative RT-PCR in treated cell lines; format: cell-based, human; conditions: Sw1573, Calu6, H23, H460 and PC9; 1 μM DZNep, 4 days
Method: RNA from treated cell lines was extracted from using Trizol. Equal amounts of RNA were incubated with DNAse I before cDNA was made using the SuperScript III™ kit (Invitrogen). Relative gene expression was assayed with Sybr green on the StepOnePlus™ Real-Time PCR System (Applied Biosystems). Relative expression was calculated by Gene of Interest (Ctreference-Ctexprimental)-CYPA(Ctreference-Ctexperimental) and graphed on the log 2 scale. For all experiments, the reference sample was a matched untreated or control transduced cell line. Primer sequences:
RNA from treated cell lines was extracted using Absolutely RNA™ kits (Agilent) and cDNA was made using the SuperScript III™ kit (Invitrogen). Relative gene expression was assayed with Sybr green on the StepOnePlus™ Real-Time PCR System (Applied Biosystems). Relative expression was calculated by Gene of Interest(Ctreference-Ctexperimental)-CYPA(Ctreference-Cteexperimental) and graphed on the log 2 scale. For all experiments, the reference sample was a matched untreated or control transduced cell line.

human NSCLC lines = experiment: Cell line growth, 4 days (Cell Titer Glo); format: cell-based; conditions: 1 μM DZNep
Method: (§1) Cell lines were dissociated, counted and plated at 5000 cells per well in flat bottom opaque tissue culture treated 96 well plates (CytoOne). Edge wells were filled with PBS. The following day, 2× drug diluted in media was added to each well such that the well then contained 100 ul media with 1× drug concentration. After 4 days, Cell Titer Glo™ (Promega) was added and luminescence was read on a BioTec plate reader to determine relative cell number in each well. Data were averaged for triplicate or quadruplicate technical replicates, normalized to the untreated wells and input into GraphPad Prism software to extrapolate IC50.
as §1, with “concentration at the following doses: etoposide; 0, 0.1, 1, 3, 5, 7, 10, 50, 100, 500 μM, cisplatin; 0, 0.1, 1, 5, 10, 30, 70, 100, 500 μM, or doxorubicin; 0, 0.01, 0.1, 0.5, 1, 3, 5, 7, 10, 50 μM.” for “concentration.”, “CELLTITER-GLO™” for “Cell Titer Glo™”, “replicates and” for “replicates,”, “wells. […]” for “wells and input into GraphPad Prism software to extrapolate IC50.”

PC9 = experiment: Etoposide dose response curves in the presence of 5 μM cisplatin; format: cell-based, human; conditions: PC9 (sensitized), combination with DZNep
Method: FIG. 25A is a Waterfall plot of cell line growth in 1 μM DZNep for 4 days compared to untreated cells, n=3-5 biological replicates, * indicates p<0.04, ** p<0.007. […] FIG. 25C is a pair of representative etoposide dose response curves performed in the presence of 5 μM cisplatin, the sensitized line PC9 (4.2-fold decrease, p<0.0001) and the protected line H23 (3.4-fold increase, p<0.0001) are shown.
as §1, with “concentration at the following doses: etoposide; 0, 0.1, 1, 3, 5, 7, 10, 50, 100, 500 μM, cisplatin; 0, 0.1, 1, 5, 10, 30, 70, 100, 500 μM, or doxorubicin; 0, 0.01, 0.1, 0.5, 1, 3, 5, 7, 10, 50 μM.” for “concentration.”, “CELLTITER-GLO™” for “Cell Titer Glo™”, “replicates and” for “replicates,”, “wells. Results from three or four independent biological replicate experiments were” for “wells and”, “GRAPHPAD PRISM™” for “GraphPad Prism”, “IC50 and s.e.m. of IC50 for a given cell line.” for “IC50.”

H157 xenografts = experiment: Xenograft tumor growth in nude mice; format: in vivo, Foxn1nu (nude) mice
Method: (§2) To determine if the protected and sensitized phenotypes could be observed in vivo, cells were transplanted subcutaneously, tumors allowed to initiate, and mice treated with etoposide and DZNep. 12 days after cell injection, tumor bearing mice were randomized into groups that received either etoposide (20 mg/kg/day) or placebo (corn oil) daily for five days. The cohorts were further subdivided into groups that also received DZNep, either 2 mg/kg/day twice during the first week (dosing scheme A), or 1 mg/kg/day twice during the first two weeks (dosing scheme B).
(§3) Cell lines were dissociated into single cells, counted and resuspended at 1×10^6 cells per 250 μL of 1:1 media/matrigel (BD). 8- to 16-week-old Foxn1nu (nude) mice (Harlan) were injected subcutaneously with 1×10^6 cells in four spots on flanks. Chemo and DZNep were administered from day 12 to day 17 post injections, Etoposide: 20 mg/kg/day i.p. in corn oil once per day for 5 consecutive days, and DZNep 2 mg/kg/day i.p. in corn oil twice per week for 1 week (dosing scheme A) OR 1 mg/kg/day i.p. in corn oil twice per week for 2 weeks (dosing scheme B). Tumor growth was measured every other day by caliper.
as §3, with “2-4” for “four”, “Etoposide” for “Chemo”, “injections; etoposide:” for “injections, Etoposide:”, “week, or” for “week (dosing scheme A) OR”, “weeks.” for “weeks (dosing scheme B).”, “caliper. All mouse experiments were approved by the CHB Animal Care and Use Committee and by the Dana-Farber Cancer Institute Institutional Animal Care and Use Committee, both accredited by AAALAC, and were performed in accordance with relevant institutional and national guidelines and regulations.” for “caliper.”

H23 xenografts = experiment: Xenograft tumor growth in nude mice; format: in vivo, Foxn1nu (nude) mice; conditions: H23, DZNep 1 mg/kg/day twice per week for 2 weeks (dosing scheme B)
Method: as §2, §3
as §3, with “2-4” for “four”, “Etoposide” for “Chemo”, “injections; etoposide:” for “injections, Etoposide:”, “week, or” for “week (dosing scheme A) OR”, “weeks.” for “weeks (dosing scheme B).”, “caliper. All mouse experiments were approved by the CHB Animal Care and Use Committee and by the Dana-Farber Cancer Institute Institutional Animal Care and Use Committee, both accredited by AAALAC, and were performed in accordance with relevant institutional and national guidelines and regulations.” for “caliper.”

HCC15 = experiment: 7AAD cell cycle flow cytometry, stably transduced lines; format: cell-based, human
Method: (§4) Cell lines were plated at 1.5×10^6 cells per 10 cm plate and treated with drug for 4 days. Cells were then dissociated, fixed with 100% ice cold Ethanol for at least 2 hours, incubated for 30 minutes with 1 mg/mL RNase A and resuspended in 20 μg/mL 7AAD. 30,000 events were collected on the BD Facscalibur™ and analyzed with the ModFit LT™ software. In cases where etoposide treated cells had such abnormal ploidy that ModFit LT™ was unable to correctly model the cell cycle, the data was analyzed manually on FlowJo™ software by setting the gates on the etoposide sample and copying them to the etoposide+DZNep and etoposide shEZH2 samples.
(§5) For 7AAD-cell cycle analysis, cell lines were plated at 1.5×10^6 cells per 10 cm plate and treated with drug for 4 days. Cells were then dissociated, fixed with 100% ice cold Ethanol for at least 2 hours, incubated for 30 minutes with 1 mg/mL DNase-free RNase A (Thermo) and resuspended in 20 μg/mL 7-Aminoactinomycin D (7AAD; Invitrogen). 30,000 events were collected on the BD FORTESSA™ and analyzed with the MODFIT LT™ software. Results from three to four independent biological replicate experiments were averaged for each cell line.

H460 = experiment: as above; format: cell-based, human; conditions: etoposide treated H460 shBrg1 and EGFR over-expression
Method: as §4, §5

`Nc1nccc2c1ncn2[C@@H]1C=C(CO)[C@@H](O)[C@H]1O` [DZNep, 3-Deazaneplanocin A] was tested, and the BRG1 transcript [1] was “reproducibly increased”, the “average reduction in growth of the cell lines” value (human NSCLC lines; 4-day time point) was 20% and the “cell lines showing a significant reduction in growth” value (human NSCLC lines; 4-day time-point, panel of 26 lines) was 11 of 26. The “decrease in etoposide IC50” value (PC9) was 4.2 fold, the “efficacy of dosing scheme B” value (H157 xenografts; H157, DZNep 1 mg/kg/day twice per week for 2 weeks) was “not as effective” and the “tumor burden, DZNep alone vs untreated/vehicle” value (H157 xenografts; H157 xenografts, DZNep 2 mg/kg/day twice in first week (dosing scheme A)) was “effective at reducing tumor burden; also recorded: weakly effective”. The “sensitivity of xenografts to DZNep as a single therapy” value (H23 xenografts) was “very sensitive; also recorded: sensitive”, the “S phase change in response to DZNep” value (HCC15; etoposide treated HCC15 Brg1 over-expression) was “dramatically smaller accumulation in S phase; also recorded: did not accumulate in S phase” and the “S phase change in response to DZNep” value (HCC15; etoposide treated HCC15 shEGFR) was “decrease in S phase; also recorded: no additional increase in S phase”. The “S phase change in response to DZNep” value (H460) was “enriched for S phase”.
